From US8563614B2, “Use of treprostinil to treat neuropathic diabetic foot ulcers” (United Therapeutics Corporation, priority 2004, dated 2013)

Columns and labels:
[1] = tested on: patients with PAD, diabetes and inoperable ischemic foot ulcers; assay: open-label study of safety and efficacy in patients with PAD, diabetes and inoperable ischemic foot ulcers; assay type: in vivo
Description: The purpose of this open-label study is to evaluate the safety and efficacy of treprostinil sodium, a stable prostacyclin analogue, in ten patients with PAD, diabetes and inoperable ischemic foot ulcers.
Treprostinil sodium was administered as a continuous subcutaneous infusion beginning at 2.5 ng/Kg/Min and titrated to highest tolerated dose for 12 weeks. Patients were monitored for adverse events, wound healing, skin perfusion pressure and ischemic rest pain.

[2] = tested on: patients with class III or class IV heart failure; settings: Patterson et al. 1995; cited from earlier work
[3] = tested on: human alveolar macrophages; settings: Raychaudhuri et al. 2002; cited from earlier work
[4] = tested on: diabetic neuropathy patients having at least one ulcer present on a foot; assay: administration to humans with diabetic neuropathy suffering from foot ulcers; assay type: in vivo; settings: continuous subcutaneous infusion, 2.5 ng/kg/min raised weekly to target dose, 12 weeks
Description: Diabetic neuropathy patients having at least one ulcer (i.e., small sore or area of tissue gangrene) present on a foot are dosed with increasing amounts of Treprostinil over 12 weeks. The medication is delivered by a small pump that is connected to a catheter placed under the skin. In this manner, increasing dosages of Treprostinil are administered to patients by chronic continuous subcutaneous infusion.
Specifically, a 1.0 mg/mL formulation of Treprostinil sodium (REMODULIN®) is administered subcutaneously using a standard micro-infusion, positive-pressure infusion pump designed for subcutaneous drug delivery (Mini-Med). Patients receive an initial dose of 2.5 ng/kg/min of study drug. If, in a given patient, a dose of 2.5 ng/kg/min is not tolerated (e.g., persistent headache, nausea, emesis, restlessness, anxiety or severe pain at infusion site that cannot be adequately managed by medication or topical treatment), the dose is reduced to 1.25 ng/kg/min. Patients are maintained at 2.5 ng/kg/min (or 1.25 ng/kg/min if 2.5 ng/kg/min is not tolerated) during Week 1. After that, the dose is raised by 2.50 ng/kg/min each week until not tolerated or once a target dose is reached.
Dosing is increased weekly unless not tolerated by the patient. […] One example of a target dose is 15 ng/kg/min. The minimum dose is usually not less than 0.625 ng/kg/min. […]

[5] = tested on: human pulmonary arterial smooth muscle cells; settings: Clapp et al. 2002; cited from earlier work
[6] = tested on: diabetics with non-healing wounds in critically ischemic lower extremities; assay: case-controlled trial in diabetic patients with recalcitrant lower extremity wounds: peri-wound TcPO2 and laser Doppler; assay type: in vivo, human
Description: A case-controlled trial examining the effects of treprostinil sodium (Remodulin®), by continuous subcutaneous infusion, was performed in diabetic patients with recalcitrant lower extremity wounds. The known vasodilator and platelet-aggregation inhibitor properties of treprostinil sodium warranted its evaluation as an adjuvant to wound healing in ischemic extremities. The primary endpoints were wound healing and limb salvage. Amongst the secondary endpoints were resting peri-wound transcutaneous oximetry (TcPO2) and laser Doppler analysis (LD) and the response of TcPO2 and LD to an oxygen challenge at ambient or elevated pressure. If treprostinil sodium reduces inflow resistance distal to the pre-capillary sphincter, the ΔpO2 between the hypoxic wound center and the inflow blood should increase both in magnitude and in the slope of that difference. This would be the physiologic basis for the augmentation of the hypoxic signal.
The seven enrolled patients were diabetics with non-healing wounds present (>3 months) in critically ischemic lower extremities (Fontaine Stage III-IV or Rutherford Stage 4, 5 or 6). The treprostinil sodium (Remodulin®) was given by continuous subcutaneous infusion for the study period of 6 weeks. Candidacy for hyperbaric oxygen treatment was an exclusion criterion (patient refusal, logistical constraints or a recently completed HBO2 course). […]

[7] = of seven patients who completed the trial to-date, 12 weeks

Row | Structure (SMILES) | serious adverse events attributed to treprostinil ([1]; continuous subcutaneous infusion from 2.5 ng/Kg/Min titrated to highest tolerated dose, 12 weeks, seven patients completed) | drug related side effect reported ([1]; continuous subcutaneous infusion, 12 weeks, seven patients completed) | patients who experienced complete healing [1, 7] | patients who experienced complete resolution of rest pain [1, 7] | patients who experienced partial healing [1, 7] | vasodilator effects [2] | inflammatory cytokine (tumor necrosis factor-α, interleukin-1β, interleukin-6, GM-CSF) secretion and gene expression [3] | foot ulcers present before treatment [4] | new foot ulcers associated with diabetic neuropathy [4] | proliferation of human pulmonary arterial smooth muscle cells [5] | increase in LD signals (thermal stimulation response) ([6]; all patients with exception of one, on drug against before infusion) | patients who demonstrated healing in wounds ([6]; seven enrolled patients, continuous subcutaneous infusion for 6 weeks, wounds with mean healing arrest of 10.5 months) | effect on ischemic rest pain, skin perfusion, and wound healing ([1]; conclusion of the study)
1 | CCCCC[C@H](O)CC[C@@H]1[C@H]2Cc3cccc(OCC(=O)O)c3C[C@H]2C[C@H]1O [Treprostinil, 9-deoxy-2′,9-α-methano-3-oxa-4,5,6-trinor-3,7-(1′,3′-interphenylene)-13,14-dihydro-prostaglandin F1] | No serious adverse events | mild to moderate infusion site pain | Two | Five | Two | vasodilator effects | inhibits | reduction in the number, size and severity | fewer new foot ulcers | inhibits proliferation |  |  | 
2 | CCCCC[C@H](O)CC[C@@H]1[C@H]2Cc3cccc(OCC(=O)O)c3C[C@H]2C[C@H]1O [Treprostinil sodium] |  |  |  |  |  |  |  |  |  |  | 236% | All patients but one | positive effect
